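Five compound concentrations were applied to cells in 96-well plates for 48 hours; endpoints were derived by simple linear interpolation of the resulting dose-response curve. Here, GI50 denotes the concentration required for 50% inhibition of growth.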 Active and inactive are the calls of the source. Cut-off read from the data, not from the text of the source: active = GI50 up to about 1.1 µM and inactive = higher.
Columns and labels:
Test in all cases: inhibition of tumour cell growth, NCI panel, 48 h
HCC 2998 = system: HCC 2998
U-251 = system: U-251
T47D = system: T47D
KM12 = system: KM12
SK-MEL-5 = system: SK-MEL-5
HOP-62 = system: HOP-62
SK-MEL-28 = system: SK-MEL-28
HT-29 = system: HT-29
BT-549 = system: BT-549
LOX IMVI = system: LOX IMVI
786-0 = system: 786-0
SNB-75 = system: SNB-75
OVCAR-3 = system: OVCAR-3
SF-295 = system: SF-295
IGROV-1 = system: IGROV-1
OVCAR-4 = system: OVCAR-4
SF-268 = system: SF-268
SNB-19 = system: SNB-19
SN12C = system: SN12C
NCI/ADR-RES = system: NCI/ADR-RES
DU-145 = system: DU-145
HOP-92 = system: HOP-92
Malme-3M = system: Malme-3M
CAKI-1 = system: CAKI-1
HCT-116 = system: HCT-116
MDA-N = system: MDA-N
CCRF-CEM = system: CCRF-CEM
UO-31 = system: UO-31
PC-3 = system: PC-3
OVCAR-5 = system: OVCAR-5
SR = system: SR
Hs-578T = system: Hs-578T
MCF7 = system: MCF7
A549 = system: A549
A498 = system: A498
SW-620 = system: SW-620
NCI-H23 = system: NCI-H23
OVCAR-8 = system: OVCAR-8
K562 = system: K562
HCT-15 = system: HCT-15
SK-OV-3 = system: SK-OV-3
COLO 205 = system: COLO 205
UACC-257 = system: UACC-257
NCI-H460 = system: NCI-H460
NCI-H522 = system: NCI-H522
NCI-H226 = system: NCI-H226
SF-539 = system: SF-539
RXF 393 = system: RXF 393
RPMI-8226 = system: RPMI-8226
M14 = system: M14
TK-10 = system: TK-10
MDA-MB-231 = system: MDA-MB-231
MOLT-4 = system: MOLT-4
UACC-62 = system: UACC-62
ACHN = system: ACHN
EKVX = system: EKVX
HL-60 = system: HL-60
MDA-MB-435 = system: MDA-MB-435
SK-MEL-2 = system: SK-MEL-2

Structure (SMILES): O=[N+]([O-])C(C(Cl)=C(Cl)Cl)=C(n1nnc2ccccc21)n1nnc2ccccc21
- GI50 (HCC 2998): 49.1 µM (inactive)
- GI50 (U-251): 36.1 µM (inactive)
- GI50 (T47D): 40.7 µM (inactive)
- GI50 (KM12): > 58.5 µM (inactive)
- GI50 (SK-MEL-5): 34.2 µM (inactive)
- GI50 (HOP-62): 35.7 µM (inactive)
- GI50 (SK-MEL-28): 23.5 µM (inactive)
- GI50 (HT-29): 26 µM (inactive)
- GI50 (BT-549): > 51.1 µM (inactive)
- GI50 (LOX IMVI): 24.4 µM (inactive)
- GI50 (786-0): 13.2 µM (inactive)
- GI50 (SNB-75): > 44.3 µM (inactive)
- GI50 (OVCAR-3): 24.9 µM (inactive)
- GI50 (SF-295): > 56 µM (inactive)
- GI50 (IGROV-1): 36.6 µM (inactive)
- GI50 (OVCAR-4): 36.9 µM (inactive)
- GI50 (SF-268): 30.1 µM (inactive)
- GI50 (SNB-19): > 86.7 µM (inactive)
- GI50 (SN12C): 22.6 µM (inactive)
- GI50 (NCI/ADR-RES): 32.4 µM (inactive)
- GI50 (DU-145): > 86.3 µM (inactive)
- GI50 (HOP-92): 43.5 µM (inactive)
- GI50 (Malme-3M): 21.7 µM (inactive)
- GI50 (CAKI-1): 30.3 µM (inactive)
- GI50 (HCT-116): 20.5 µM (inactive)
- GI50 (MDA-N): 23.9 µM (inactive)
- GI50 (CCRF-CEM): 18.6 µM (inactive)
- GI50 (UO-31): 25.6 µM (inactive)
- GI50 (PC-3): 37.1 µM (inactive)
- GI50 (OVCAR-5): 47.1 µM (inactive)
- GI50 (SR): 8.45 µM (inactive)
- GI50 (Hs-578T): 35.8 µM (inactive)
- GI50 (MCF7): 28.1 µM (inactive)
- GI50 (A549): 48.5 µM (inactive)
- GI50 (A498): > 57.9 µM (inactive)
- GI50 (SW-620): 5.21 µM (inactive)
- GI50 (NCI-H23): 37.6 µM (inactive)
- GI50 (OVCAR-8): 21.5 µM (inactive)
- GI50 (K562): 11.5 µM (inactive)
- GI50 (HCT-15): 25.9 µM
- GI50 (SK-OV-3): > 43.6 µM (inactive)
- GI50 (COLO 205): 19.5 µM (inactive)
- GI50 (UACC-257): 48.9 µM (inactive)
- GI50 (NCI-H460): 51.6 µM (inactive)
- GI50 (NCI-H522): 18.5 µM (inactive)
- GI50 (NCI-H226): > 58.7 µM (inactive)
- GI50 (SF-539): 28.2 µM (inactive)
- GI50 (RXF 393): 20.2 µM (inactive)
- GI50 (RPMI-8226): 24.8 µM (inactive)
- GI50 (M14): 30.7 µM (inactive)
- GI50 (TK-10): 46.1 µM (inactive)
- GI50 (MDA-MB-231): 20.4 µM (inactive)
- GI50 (MOLT-4): 9.33 µM (inactive)
- GI50 (UACC-62): 16.1 µM (inactive)
- GI50 (ACHN): 25.6 µM (inactive)
- GI50 (EKVX): > 59.3 µM (inactive)
- GI50 (HL-60): 3.94 µM (inactive)
- GI50 (MDA-MB-435): 27.9 µM (inactive)
- GI50 (SK-MEL-2): 42 µM (inactive)
